Experimental data from patent US20150376216A1, “SUGAR-ANALOG PHOSPHORUS-CONTAINING HETEROCYCLES HAVING AN ANTI-METASTATIC ACTIVITY” (CENTRE NATIONAL DE LA RECHERCHE SCIENTIRIQUE, priority 2013, published 2015).
Like-named read-outs stand apart in the source and are kept apart here.

Tests used:
melanoma line MDAMB-435 = assay: Boyden chamber migration test, MDAMB-435; format: cell-based, human; conditions: for Ki: 24 hours, read-out: Inhibition constant Ki, migration
Procedure: The effects of compounds 3.48a, 4.2a and 5.6d on the migration of cancer cells (human glioblastoma line SNB75 or primary culture of human glioblastoma Gli4F1, on the one hand, and MDAMB 435 and A431 on the other hand), were determined by performing a standard migration test in a Boyden chamber (treatment of the cells for 24 hours).
For this test, the compounds were dissolved in vitro and used in culture in 0.3% of DMSO. The interior of the inserts was covered with the extracellular matrix protein studied (laminin-1, vitronectin or fibronectin). The cells pretreated at various concentrations and untreated (controls) were deposited in the inserts covered with said protein at a rate of 50 000 cells/500 μl/insert in a medium containing 0.1% of BSA (bovine serum albumin).
500 μl of medium containing 10% fetal calf serum were then placed in each well of a Companion plate so as to allow the formation of a chemotactic gradient across the porous membrane. After 24 hours of migration in the incubator at 37° C., the supernatent was removed and the inserts rinsed with PBS on each face. The cells were counted with a microscope (Zeiss Axiophot, magnification ×200). This gives a percentage of migration relative to the untreated cells.
Table 2 below gives, for compound 3.48a, the values for the inhibition constants (Ki) for the migration of a human GBM line (SNB75), of GBM stem cell lines (Gli4, Gli7) and of a breast cancer line MDAMB231, in a Boyden chamber, on various extracellular matrix protein supports. Tables 3 and 4 below give, for compounds 4.2a and 5.6d, the values of the inhibition constants (Ki) for the migration of a melanoma line (MDAMB-435) or of an epidermoid cancer line (A431), in a Boyden chamber, on various extracellular matrix protein supports. The inhibitory effect depends on the line and the stem cells used, but also on the extracellular matrix protein support used.

MDAMB-435 cells = assay: MDAMB-435 subcutaneous model; format: in vivo, mice
Procedure: A suspension of 1×10^6 MDAMB-435 cells in 100 μl of sterile PBS (phosphate-buffered saline, supplied by Fisher) was injected into each mouse (subcutaneous administration, with anesthesia, in the mammary gland of the left hind quarter). Once a control pregroup of three mice presented the first metastases (liver, intestine, ovary), the protocol was conducted with […] of eight mice. The five groups of mice were treated using one of the five formulations described below:
Group A: Treatment by injection of 100 μl of NaCl (control N° 1).
Group B: Treatment by injection of 100 to 150 μl according to the weight of the mice of formulation 2 not containing compound 4.2a (control N° 2).
Group C: Treatment with compound 4.2a at a rate of 10 mg/kg with volumes of 100 to 150 μl of formulation 2 depending on the weight of the mice.
Group D: Treatment with compound 4.2a at a rate of 5 mg/kg with volumes of 100 to 150 μl of formulation 2 depending on the weight of the mice.
Each batch was treated by intravenous injection into the caudal vein of 100 to 150 μl of solution (precision syringe and G25X1 needle ultrafine wall, VWR). Three injections per week for four weeks were performed. The mice were weighed at each injection. The mice were sacrificed after four weeks, and the tumors and organs (liver, kidney, spleen, brain, intestine, heart, muscles) were removed. A histological analysis was performed on these organs.

Acute in vivo toxicity = conditions: healthy mice; 50, 25, 10, 5 and 1 mg/kg; maximum dose 50 mg/kg
Procedure: Studies of the acute toxicity of compounds 3.48a and 4.2a were performed on healthy mice for a concentration range of 50, 25, 10, 5 and 1 mg/kg.

CaCo2 = assay: MTT antiproliferative test, CaCo2; format: cell-based; conditions: Homo sapiens, Caco-2, read-out: IC50, inhibition of proliferation
Procedure: (§1) The lines MDAMB-435 and A431 are seeded at a density of 3000 cells per well in 96-well plates. After 24 hours, compounds 4.2a and 5.6d resuspended in 100% DMSO are added at concentrations of 0-0.001-0.010-0.1-1-10-50 μM for a final constant amount of DMSO of 0.3%. The cultures are maintained for a further 72 hours and an MTT colorimetric test is then performed. 100 μl of a solution of MTT at 5 mg/ml in PBS are added to the culture medium, which is left to incubate for 3 hours. The culture medium is removed and the cells are lyzed by adding 100 μL of a 4 mM HCl solvent, 0.1% Nondet P-40 (NP40) in isopropanol. The yellow tetrazolium MTT salt (3-(4,5-dimethylthiazol-2-yl)-2,5-diphenyl tetrazolium bromide), when it is reduced by the mitochondrial succinate dehydrogenase of active live cells, forms a blue-violet formazan product. The medium then changes from yellow to blue-violet. The intensity of this coloration at 590 nm is proportional to the number of live cells present during the test and gives an indication of the metabolic activity of these cells.
(§2) Table 1 gives the concentration values for 50% inhibition of proliferation (IC50) for compounds 4.2a and 5.6d on lines derived from bowel cancer (CaCo2), skin cancer (A431, MDAMB-435, B16F10), breast cancer (MDAMB-431), […] (HuH7), prostate cancer (DU145) and brain cancer (SNB75, Gli4, Gli7).

B16F10 = assay: MTT antiproliferative test, B16F10; format: cell-based; conditions: Mus musculus, B16-F10, read-out: IC50, inhibition of proliferation
Procedure: as §1, §2

[1] = 10 and 5 mg/kg i.v. (groups C and D), three injections per week for four weeks

CC1(C)O[C@H]2[C@@H]([C@H]3COC(C)(C)O3)O[P@](=O)(c3ccccc3)[C@@H](OC(=O)c3ccccc3)[C@H]2O1 [Compound 4.2a, (SPRSRR)-3-benzoate-4-(2,2-dimethyl-[1,3]dioxolan-4-yl)-2,2-dimethyl-2-oxo-2-phenyl-tetrahydro-2λ^5-[1,2]oxaphosphinane] gave an IC50 (melanoma line MDAMB-435; Homo sapiens, MDA-MB-435, on fibronectin or vitronectin, read-out: Concentration for a 50% decrease in migration of the cancer cells) of 10 to 100 nM, a Ki (melanoma line MDAMB-435; support Fibronectin) of 33 nM and a Ki (melanoma line MDAMB-435; support Laminin) of 34 nM. The Ki (melanoma line MDAMB-435; support Vitronectin) was 61 nM, the “Metastases in the ovaries (FIG. 4)” value (MDAMB-435 cells; 10 and 5 mg/kg (groups C and D)) was “absence of metastases” and the “Number of metastases per mouse (FIG. 5)” value (MDAMB-435 cells; 10 and 5 mg/kg (groups C and D), controls predominantly more than two) was “none of the mice treated with compound 4.2a (groups C and D) developed more than two metastases”. The “Metastatic development (size of metastases)” value (MDAMB-435 cells; [1]) was “a reduction in metastatic development (small-sized metastases)”, the Number of metastases (MDAMB-435 cells; [1]) was “a large reduction in the number of metastases” and the “Mass distribution of secondary tumors (FIG. 6)” value (MDAMB-435 cells; as a function of the treatment conditions) was “reduced the development of metastases”. The “Mortality, acute toxicity” value (Acute in vivo toxicity) was “No mortality was observed”, the IC50 (CaCo2) was greater than 100000 nM and the IC50 (B16F10) was 13500 nM.
